# PubChem BioAssay (NCI)
#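 Growth conditions: 96-well plates. Treatment: test compound, 48 hours, 5 concentrations. Analysis: linear interpolation between bracketing concentrations; unreached endpoints set to highest concentration. GI50 = concentration required for 50% inhibition of growth. TGI is the concentration that stops growth completely.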
# Columns and labels:
# Experiment in all cases: NCI anticancer screen, dose series, 48 h
# RXF 393 renal = test system: RXF 393 renal
# SW-620 colon = test system: SW-620 colon
# MDA-MB-231 breast = test system: MDA-MB-231 breast
# SK-MEL-5 melanoma = test system: SK-MEL-5 melanoma
# M14 melanoma = test system: M14 melanoma
# T-47D breast = test system: T-47D breast
# SK-OV-3 ovarian = test system: SK-OV-3 ovarian
# SF-268 CNS = test system: SF-268 CNS
# NCI-H226 lung = test system: NCI-H226 lung
# OVCAR-8 ovarian = test system: OVCAR-8 ovarian
# HT29 colon = test system: HT29 colon
# BT-549 breast = test system: BT-549 breast
# MALME-3M melanoma = test system: MALME-3M melanoma
# TK-10 renal = test system: TK-10 renal
# MDA-MB-435 = test system: MDA-MB-435
# U251 CNS = test system: U251 CNS
# SK-MEL-28 melanoma = test system: SK-MEL-28 melanoma
# RPMI-8226 leukemia = test system: RPMI-8226 leukemia
# SNB-19 CNS = test system: SNB-19 CNS
# ACHN renal = test system: ACHN renal
# SR leukemia = test system: SR leukemia
# IGROV1 ovarian = test system: IGROV1 ovarian
# SN12C renal = test system: SN12C renal
# HCT-116 colon = test system: HCT-116 colon
# OVCAR-3 ovarian = test system: OVCAR-3 ovarian
# NCI/ADR-RES ovarian = test system: NCI/ADR-RES ovarian
# DU-145 prostate = test system: DU-145 prostate
# SNB-75 CNS = test system: SNB-75 CNS
# SF-539 CNS = test system: SF-539 CNS
# MCF7 breast = test system: MCF7 breast
# NCI-H460 lung = test system: NCI-H460 lung
# CAKI-1 renal = test system: CAKI-1 renal
# CCRF-CEM leukemia = test system: CCRF-CEM leukemia
# UACC-62 melanoma = test system: UACC-62 melanoma
# OVCAR-5 ovarian = test system: OVCAR-5 ovarian
# HCC-2998 colon = test system: HCC-2998 colon
# UO-31 renal = test system: UO-31 renal
# 786-0 renal = test system: 786-0 renal
# NCI-H23 lung = test system: NCI-H23 lung
# KM12 colon = test system: KM12 colon
# SK-MEL-2 melanoma = test system: SK-MEL-2 melanoma
# HOP-62 NSCLC = test system: HOP-62 NSCLC
# PC-3 prostate = test system: PC-3 prostate
# EKVX NSCLC = test system: EKVX NSCLC
# A498 renal = test system: A498 renal
# LOX IMVI melanoma = test system: LOX IMVI melanoma
# HS 578T breast = test system: HS 578T breast
# HCT-15 colon = test system: HCT-15 colon
# MOLT-4 leukemia = test system: MOLT-4 leukemia
# OVCAR-4 ovarian = test system: OVCAR-4 ovarian
# HOP-92 NSCLC = test system: HOP-92 NSCLC
# NCI-H522 lung = test system: NCI-H522 lung
# A549 NSCLC = test system: A549 NSCLC
# K-562 leukemia = test system: K-562 leukemia
# SF-295 CNS = test system: SF-295 CNS
# UACC-257 melanoma = test system: UACC-257 melanoma
# HL-60(TB) leukemia = test system: HL-60(TB) leukemia
# COLO 205 colon = test system: COLO 205 colon
smiles,measurement,setting,value
O=[N+]([O-])c1ccc2c(c1)C(=NO)c1cc([N+](=O)[O-])ccc1-2,GI50,RXF 393 renal,> 100 µM
same,TGI,RXF 393 renal,> 100 µM
same,GI50,SW-620 colon,12.4 µM
same,TGI,SW-620 colon,> 100 µM
same,GI50,MDA-MB-231 breast,36.3 µM
same,TGI,MDA-MB-231 breast,> 100 µM
same,GI50,SK-MEL-5 melanoma,12.1 µM
same,TGI,SK-MEL-5 melanoma,34 µM
same,GI50,M14 melanoma,21.5 µM
same,TGI,M14 melanoma,> 100 µM
same,GI50,T-47D breast,79 µM
same,TGI,T-47D breast,> 100 µM
same,GI50,SK-OV-3 ovarian,> 100 µM
same,TGI,SK-OV-3 ovarian,> 100 µM
same,GI50,SF-268 CNS,33.6 µM
same,TGI,SF-268 CNS,> 100 µM
same,GI50,NCI-H226 lung,10.9 µM
same,TGI,NCI-H226 lung,29.1 µM
same,GI50,OVCAR-8 ovarian,74.7 µM
same,TGI,OVCAR-8 ovarian,> 100 µM
same,GI50,HT29 colon,19.5 µM
same,TGI,HT29 colon,> 100 µM
same,GI50,BT-549 breast,50.8 µM
same,TGI,BT-549 breast,> 100 µM
same,GI50,MALME-3M melanoma,11.7 µM
same,TGI,MALME-3M melanoma,> 100 µM
same,GI50,TK-10 renal,12.6 µM
same,TGI,TK-10 renal,> 100 µM
same,GI50,MDA-MB-435,22.5 µM
same,TGI,MDA-MB-435,> 100 µM
same,GI50,U251 CNS,10.7 µM
same,TGI,U251 CNS,> 100 µM
same,GI50,SK-MEL-28 melanoma,43.4 µM
same,TGI,SK-MEL-28 melanoma,> 100 µM
same,GI50,RPMI-8226 leukemia,29.4 µM
same,TGI,RPMI-8226 leukemia,> 100 µM
same,GI50,SNB-19 CNS,> 100 µM
same,TGI,SNB-19 CNS,> 100 µM
same,GI50,ACHN renal,4.98 µM
same,TGI,ACHN renal,39.7 µM
same,GI50,SR leukemia,2.88 µM
same,TGI,SR leukemia,9.86 µM
same,GI50,IGROV1 ovarian,2.52 µM
same,TGI,IGROV1 ovarian,7.6 µM
same,GI50,SN12C renal,20.5 µM
same,TGI,SN12C renal,> 100 µM
same,GI50,HCT-116 colon,6.71 µM
same,TGI,HCT-116 colon,> 100 µM
same,GI50,OVCAR-3 ovarian,68.4 µM
same,TGI,OVCAR-3 ovarian,> 100 µM
same,GI50,NCI/ADR-RES ovarian,16.3 µM
same,TGI,NCI/ADR-RES ovarian,> 100 µM
same,GI50,DU-145 prostate,55.1 µM
same,TGI,DU-145 prostate,> 100 µM
same,GI50,SNB-75 CNS,7.18 µM
same,TGI,SNB-75 CNS,75.8 µM
same,GI50,SF-539 CNS,37.7 µM
same,TGI,SF-539 CNS,> 100 µM
same,GI50,MCF7 breast,4.92 µM
same,TGI,MCF7 breast,> 100 µM
same,GI50,NCI-H460 lung,4.82 µM
same,TGI,NCI-H460 lung,> 100 µM
same,GI50,CAKI-1 renal,6.46 µM
same,TGI,CAKI-1 renal,> 100 µM
same,GI50,CCRF-CEM leukemia,13.6 µM
same,TGI,CCRF-CEM leukemia,> 100 µM
same,GI50,UACC-62 melanoma,11.5 µM
same,TGI,UACC-62 melanoma,> 100 µM
same,GI50,OVCAR-5 ovarian,> 100 µM
same,TGI,OVCAR-5 ovarian,> 100 µM
same,GI50,HCC-2998 colon,37.1 µM
same,TGI,HCC-2998 colon,> 100 µM
same,GI50,UO-31 renal,3.12 µM
same,TGI,UO-31 renal,23.5 µM
same,GI50,786-0 renal,10.8 µM
same,TGI,786-0 renal,> 100 µM
same,GI50,NCI-H23 lung,25.3 µM
same,TGI,NCI-H23 lung,> 100 µM
same,GI50,KM12 colon,18.6 µM
same,TGI,KM12 colon,> 100 µM
same,GI50,SK-MEL-2 melanoma,> 100 µM
same,TGI,SK-MEL-2 melanoma,> 100 µM
same,GI50,HOP-62 NSCLC,46.5 µM
same,TGI,HOP-62 NSCLC,> 100 µM
same,GI50,PC-3 prostate,24.2 µM
same,TGI,PC-3 prostate,> 100 µM
same,GI50,EKVX NSCLC,12.9 µM
same,TGI,EKVX NSCLC,> 100 µM
same,GI50,A498 renal,54 µM
same,TGI,A498 renal,> 100 µM
same,GI50,LOX IMVI melanoma,13.8 µM
same,TGI,LOX IMVI melanoma,> 100 µM
same,GI50,HS 578T breast,> 100 µM
same,TGI,HS 578T breast,> 100 µM
same,GI50,HCT-15 colon,8.92 µM
same,TGI,HCT-15 colon,> 100 µM
same,GI50,MOLT-4 leukemia,3.25 µM
same,TGI,MOLT-4 leukemia,7.61 µM
same,GI50,OVCAR-4 ovarian,12.7 µM
same,TGI,OVCAR-4 ovarian,> 100 µM
same,GI50,HOP-92 NSCLC,53.7 µM
same,TGI,HOP-92 NSCLC,> 100 µM
same,GI50,NCI-H522 lung,1.62 µM
same,TGI,NCI-H522 lung,11 µM
same,GI50,A549 NSCLC,7.23 µM
same,TGI,A549 NSCLC,> 100 µM
same,GI50,K-562 leukemia,11.7 µM
same,TGI,K-562 leukemia,> 100 µM
same,GI50,SF-295 CNS,13.5 µM
same,TGI,SF-295 CNS,> 100 µM
same,GI50,UACC-257 melanoma,62.6 µM
same,TGI,UACC-257 melanoma,> 100 µM
same,GI50,HL-60(TB) leukemia,4.19 µM
same,TGI,HL-60(TB) leukemia,22.9 µM
same,GI50,COLO 205 colon,39.5 µM
same,TGI,COLO 205 colon,> 100 µM
